# Measured values: ChEMBL document CHEMBL2390850, “New azole antagonists with high affinity for the P2Y(1) receptor” (Bioorg Med Chem Lett, 2013)
# Experiments:
# [1] = Plasma protein binding in human; type: ADME, cell-free; conditions: read-out: PPB (converted)
# [2] = Antiplatelet activity in human platelet-rich plasma assessed as inhibition of ADP-induced platelet aggregation; type: functional, cell-free
# P2Y purinoceptor 1 = P2Y purinoceptor 1 (Homo sapiens, UniProt P47900); assay: Displacement of [beta-33P]-2MeS-ADP from human P2Y1 receptor expressed in HEK293 cells after 1 hr by scintillation counting analysis; type: cell-based
# Sequence of P2Y purinoceptor 1 (P47900 whole entry): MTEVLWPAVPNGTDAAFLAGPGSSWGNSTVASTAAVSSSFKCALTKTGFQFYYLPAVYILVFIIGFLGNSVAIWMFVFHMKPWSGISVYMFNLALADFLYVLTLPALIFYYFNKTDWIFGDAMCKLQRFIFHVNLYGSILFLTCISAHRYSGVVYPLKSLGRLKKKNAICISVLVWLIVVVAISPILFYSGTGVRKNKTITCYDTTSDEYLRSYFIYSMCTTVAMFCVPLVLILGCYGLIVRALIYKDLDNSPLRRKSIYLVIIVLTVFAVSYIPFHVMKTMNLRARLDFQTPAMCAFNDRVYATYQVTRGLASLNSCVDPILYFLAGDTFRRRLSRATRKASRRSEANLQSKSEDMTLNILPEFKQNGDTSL
# [3] = Solubility of the compound at pH 6.5; type: physicochemical; conditions: buffer
# [4] = Lipophilicity, log P of the compound by HPLC analysis; type: physicochemical
# [5] = Antiplatelet activity in human platelet-rich plasma assessed as inhibition of ADP-induced platelet aggregation relative to untreated control; type: functional
Structure (SMILES),Ki (P2Y purinoceptor 1),other results
CC(C)(C)c1ccccc1Oc1ncccc1NC(=O)Nc1ccc(OC(F)(F)F)cc1,,fraction unbound [1]: 0.007
CC(C)(C)c1ccccc1Oc1ncccc1NC(=O)Nc1ccc(C(F)(F)F)cc1,0.015 µM,IC50 [2]: 12.6 µM
CC(C)(C)c1ccccc1Oc1ncccc1Nc1nnc(C(=O)O)s1,2.9 µM,
CCOC(=O)c1nnc(Nc2cccnc2Oc2ccccc2C(C)(C)C)s1,0.09 µM,
Cn1nc(Nc2cccnc2Oc2ccccc2C(C)(C)C)cc1-c1ccccc1,0.045 µM,
Cn1nc(-c2ccccc2)cc1Nc1cccnc1Oc1ccccc1C(C)(C)C,> 36 µM,
CC(C)(C)c1ccccc1Oc1ncccc1Nc1cc(-c2ccccc2)n[nH]1,0.87 µM,
CC(C)(C)c1ccccc1Oc1ncccc1Nc1nncs1,2.73 µM,
CC(C)(C)c1ccccc1Oc1ncccc1Nc1nnc(-c2ccc(OC(F)(F)F)cc2)s1,0.01 µM,
CC(C)(C)c1ccccc1Oc1ncccc1Nc1nnc(-c2ccc(C(F)(F)F)cc2)s1,0.007 µM,IC50 [2]: 7.5 µM; solubility [3]: < 1 µg/mL; logP [4]: 6
CN(C)c1ccc(-c2nnc(Nc3cccnc3Oc3ccccc3C(C)(C)C)s2)cc1,0.027 µM,
CN(C)c1cccc(-c2nnc(Nc3cccnc3Oc3ccccc3C(C)(C)C)s2)c1,0.055 µM,
CN(C)Cc1ccc(-c2nnc(Nc3cccnc3Oc3ccccc3C(C)(C)C)s2)cc1,0.25 µM,
CN(C)Cc1cccc(-c2nnc(Nc3cccnc3Oc3ccccc3C(C)(C)C)s2)c1,0.67 µM,
CC(C)(C)c1ccccc1Oc1ncccc1Nc1nnc(-c2ccc3ccccc3c2)s1,0.018 µM,
CC(C)(C)c1ccccc1Oc1ncccc1Nc1nnc(-c2ccccn2)s1,0.021 µM,
CC(C)(C)c1ccccc1Oc1ncccc1Nc1nnc(-c2cccnc2)s1,0.34 µM,
CC(C)(C)c1ccccc1Oc1ncccc1Nc1nnc(-c2ccncc2)s1,0.275 µM,IC50 [2]: 29 µM
CC(C)(C)c1ccccc1Oc1ncccc1NC(=O)Nc1ccccc1,0.041 µM,inhibition (INH) [5]: 95%
CC(C)(C)c1ccccc1Oc1ncccc1Nc1ncc(-c2ccccc2)s1,0.015 µM,logP [4]: 5.98
CC(C)(C)c1ccccc1Oc1ncccc1Nc1ncc(-c2ccccc2)o1,0.059 µM,
CC(C)(C)c1ccccc1Oc1ncccc1Nc1nnc(-c2ccccc2)s1,0.011 µM,IC50 [2]: 13 µM; logP [4]: 5.01
CC(C)(C)c1ccccc1Oc1ncccc1Nc1nc(-c2ccccc2)ns1,0.025 µM,
CC(C)(C)c1ccccc1Oc1ncccc1Nc1nsc(-c2ccccc2)n1,1.5 µM,
CC(C)(C)c1ccccc1Oc1ncccc1Nc1nnc(-c2ccccc2)o1,0.07 µM,
CC(C)(C)c1ccccc1Oc1ncccc1Nc1noc(-c2ccccc2)n1,0.41 µM,
CC(C)(C)c1ccccc1Oc1ncccc1N=C1NCC(c2ccccc2)O1 (stereo not drawn),2.5 µM,
CC(C)(C)c1ccccc1Oc1ncccc1Nc1cc(-c2ccccc2)on1,0.019 µM,
CC(C)(C)c1ccccc1Oc1ncccc1Nc1cc(-c2ccccc2)no1,0.023 µM,
